Measured values from patent publication US9751876B2, “Bicyclic heterocycle derivatives for the treatment of pulmonary arterial hypertension” (Novartis AG, priority 2011, dated 2017).
Counter-ions that a name gives are not always drawn.

Test system: PDGFR
Experiment: Rat A10 cell proliferation assay
Format: cell-based
Details: Rat A10 cells, 1% FBS, 10 ng/mL recombinant rat PDGF-BB, 68 hours with compound, CellTiter-Glo luminescence
Description: Compounds of Formula (I), (II) or (III) provided herein were assayed to measure their capacity to inhibit PDGFR kinases using the appropriate assay described below: PDGFR inhibition was evaluated using the Rat A10 cell proliferation.
Rat A10 Cell Proliferation Assay
Rat A10 cells (ATCC) were resuspended in DMEM supplemented with 1% FBS and 10 ng/mL recombinant rat PDGF-BB at 20,000 cells/mL. The cells were aliquoted into 384 well plates at 50 μL/well and incubated for 4 hours at 37° C. […] The plates were returned to the incubator for a further 68 hours. 25 μL of CellTiter-Glo (Promega) was added to each well and the plates were incubated on the bench for 15 minutes. Luminescence was then read using a CLIPR CCD camera (Molecular Devices).
Data were analysed using non-linear regression fitted to sigmoidal (variable slope) curves using a four parameter logistic equation to generate IC50 values for each compound.

SMILES	IC50
CN1CCN(c2ccccc2CNC(=O)c2ccc(F)c(NC(=O)c3cnc4cc(-c5ccc(C(=O)NCCO)c(F)c5)ccn34)c2)CC1 [Example 1.2, 7-(3-Fluoro-4-(2-hydroxyethylcarbamoyl)phenyl)-N-(2-fluoro-5-(2-(4-methylpiperazin-1-yl)benzylcarbamoyl)phenyl)imidazo[1,2-a]pyridine-3-carboxamide]	40 nM
CN(C)CCCOc1ccc(-c2ccn3c(C(=O)Nc4cc(C(=O)NCc5ccc(F)c(F)c5)ccc4F)cnc3c2)cn1 [Example 1.9, N-(5-(3,4-difluorobenzylcarbamoyl)-2-fluorophenyl)-7-(6-(3-(dimethylamino)propoxy)pyridine-3-yl)imidazo[1,2-a]pyridine-3-carboxamide]	11 nM
C[C@@H]1CCC[C@H](C)N1CCNC(=O)c1ccc(F)c(NC(=O)c2cnc3cc(-c4cccnc4)ccn23)c1 [Example 1.16, 1-(2-(4-fluoro-3-(7-(pyridine-3-yl)imidazo[1,2-a]pyridine-3-carboxamido)benzamido)ethyl)-2,6-cis-dimethylpiperidinium chloride]	27 nM
Cc1ncc(C(=O)NCc2ccccc2N2CCN(C)CC2)cc1NC(=O)c1cnc2cc(-c3ccnn3C)ccn12 [Example 1.19, 1-methyl-4-(2-((6-methyl-5-(7-(1-methyl-1H-pyrazol-5-yl)imidazo[1,2-a]pyridine-3-carboxamido)nicotinamido)methyl)phenyl)piperazin-1-ium chloride]	74 nM
C[C@@H]1CCC[C@H](C)N1CCNC(=O)c1ccc(F)c(NC(=O)c2cnc3cc(-c4cnn(C)c4)ccn23)c1 [Example 1.20, 7-(1-Methyl-1H-pyrazol-4-yl)-imidazo[1,2-a]pyridine-3-carboxylic acid {5-[2-(2,6-cis-dimethyl-piperidin-1-yl)-ethylcarbamoyl]-2-fluoro-phenyl}-amide hydrochloride]	13 nM
CN(C)CCCOc1ccc(-c2ccn3c(C(=O)Nc4cc(C(=O)NCCOC(C)(C)C)ccc4F)cnc3c2)cn1 [Example 2.1, N-(5-(2-tert-Butoxyethylcarbamoyl)-2-fluorophenyl)-7-(6-(3-(dimethylamino)propoxy)pyridin-3-yl)imidazo[1,2-a]pyridine-3-carboxamide]	3 nM
COCCN(C)Cc1cncc(-c2ccn3c(C(=O)Nc4cc(C(=O)NC[C@H]5CCC(C)(C)O5)ccc4F)cnc3c2)c1 [Example 2.6, (R)-N-(5-(((5,5-dimethyltetrahydrofuran-2-yl)methyl)carbamoyl)-2-fluorophenyl)-7-(5-(((2-methoxyethyl)(methyl)amino)methyl)pyridin-3-yl)imidazo[1,2-a]pyridine-3-carboxamide]	16 nM
O=C(NCc1ccc(F)c(F)c1)c1ccc(F)c(NC(=O)c2cnc3cc(-c4ccc(OCCN5CCCC5)nc4)ccn23)c1 [Example 3.1, N-(5-(3,4-Difluorobenzylcarbamoyl)-2-fluorophenyl)-7-(6-(2-(pyrrolidin-1-yl)ethoxy)pyridin-3-yl)imidazo[1,2-a]pyridine-3-carboxamide hydrochloride]	13 nM
CC(C)(C)OCCNC(=O)c1ccc(F)c(NC(=O)c2cnc3cc(-c4ccc(OCCN5CCCC5)nc4)ccn23)c1 [Example 3.2, N-(5-((2-(tert-Butoxy)ethyl)carbamoyl)-2-fluorophenyl)-7-(6-(2-(pyrrolidin-1-yl)ethoxy)pyridin-3-yl)imidazo[1,2-a]pyridine-3-carboxamide]	15 nM
CN1CCC(Oc2ccc(-c3ccn4c(C(=O)Nc5cc(C(=O)NCC6CCC(C)(C)O6)ccc5F)cnc4c3)cn2)CC1 (stereo not drawn) [Example 3.3, N-(5-(((5,5-dimethyltetrahydrofuran-2-yl)methyl)carbamoyl)-2-fluorophenyl)-7-(6-((1-methylpiperidin-4-yl)oxy)pyridin-3-yl)imidazo[1,2-a]pyridine-3-carboxamide]	10 nM
Cc1ccc(C(=O)NCc2ccccc2N2CCN(C)CC2)cc1NC(=O)c1cnn2cc(-c3ccnn3C)ccc12 [Example 4.1, 6-(1-Methyl-1H-pyrazol-5-yl)-N-(2-methyl-5-(2-(4-methylpiperazin-1-yl)benzylcarbamoyl)phenyl)pyrazolo[1,5-a]pyridine-3-carboxamide hydrochloride]	12 nM
CC(C)(O)CCc1ccn2c(C(=O)Nc3cc(C(=O)NCc4ccc(F)c(F)c4)ccc3F)cnc2c1 [Example 6.1, N-(5-(3,4-Difluorobenzylcarbamoyl)-2-fluorophenyl)-7-(3-hydroxy-3-methylbutyl)imidazo[1,2-a]pyridine-3-carboxamide]	41 nM
CC(C)(CO)NC(=O)c1ccc(-c2ccn3c(C(=O)Nc4cc(C(=O)NCCN5CCCC5(C)C)ccc4F)cnc3c2)cc1F [Example 7.5, N-(5-(2-(2,2-Dimethylpyrrolidin-1-yl)ethylcarbamoyl)-2-fluorophenyl)-7-(3-fluoro-4-(1-hydroxy-2-methylpropan-2-ylcarbamoyl)phenyl)imidazo[1,2-a]pyridine-3-carboxamide]	8 nM
Cc1ncc(C(=O)NCCN2CCCC2(C)C)cc1NC(=O)c1cnn2cc(-c3ccc(C(=O)NC(C)(C)CO)c(F)c3)ccc12 [Example 7.6, N-(5-(2-(2,2-Dimethylpyrrolidin-1-yl)ethylcarbamoyl)-2-methylpyridin-3-yl)-6-(3-fluoro-4-(1-hydroxy-2-methylpropan-2-ylcarbamoyl)phenyl)pyrazolo[1,5-a]pyridine-3-carboxamide]	182 nM
O=C(NCc1ccc(F)c(F)c1)c1ccc(F)c(NC(=O)c2cnc3cc(-c4ccc(C(=O)NCCCN5CCOCC5)c(F)c4)ccn23)c1 [Example 8.1, N-(5-(3,4-Difluorobenzylcarbamoyl)-2-fluorophenyl)-7-(3-fluoro-4-(3-morpholinopropylcarbamoyl)phenyl)imidazo[1,2-a]pyridine-3-carboxamide hydrochloride]	4 nM
C[C@@H]1CCC[C@H](C)N1CCNC(=O)c1ccc(F)c(NC(=O)c2cnc3cc(-c4ccc(C(=O)NC(C)(C)CO)c(F)c4)ccn23)c1 [Example 8.2, N-(5-(2-(2,6-cis-Dimethylpiperidin-1-yl)ethylcarbamoyl)-2-fluorophenyl)-7-(3-fluoro-4-(1-hydroxy-2-methylpropan-2-ylcarbamoyl)phenyl)imidazo[1,2-a]pyridine-3-carboxamide]	8 nM
CN1CCN(c2ccccc2CNC(=O)c2ccc(F)c(NC(=O)c3cnc4cc(-c5cc(F)cc(C(=O)NCCO)c5)ccn34)c2)CC1 [Example 8.4, N-(2-Fluoro-5-(2-(4-methylpiperazin-1-yl)benzylcarbamoyl)phenyl)-7-(3-fluoro-5-(2-hydroxyethylcarbamoyl)phenyl)imidazo[1,2-a]pyridine-3-carboxamide]	112 nM
CCCC1CCN(CCNC(=O)c2ccc(F)c(NC(=O)c3cnc4cc(-c5cnn(C)c5)ccn34)c2)C1 (stereo not drawn) [Example 9.2, N-(2-Fluoro-5-((2-(3-propylpyrrolidin-1-yl)ethyl)carbamoyl)phenyl)-7-(1-methyl-1H-pyrazol-4-yl)imidazo[1,2-a]pyridine-3-carboxamide]	11 nM
CC1CC(C)CN(CCNC(=O)c2ccc(F)c(NC(=O)c3cnc4cc(-c5cnn(C)c5)ccn34)c2)C1 (stereo not drawn) [Example 9.4, N-(5-((2-(3,5-Dimethylpiperidin-1-yl)ethyl)carbamoyl)-2-fluorophenyl)-7-(1-methyl-1H-pyrazol-4-yl)imidazo[1,2-a]pyridine-3-carboxamide]	128 nM
Cc1ncc(C(=O)NCCN2CCCCC2(C)C)cc1NC(=O)c1cnn2cc(-c3cnn(C)c3)ccc12 [Example 9.13, N-(5-((2-(2,2-Dimethylpiperidin-1-yl)ethyl)carbamoyl)-2-methylpyridin-3-yl)-6-(1-methyl-1H-pyrazol-4-yl)pyrazolo[1,5-a]pyridine-3-carboxamide]	7 nM
CC[C@@H]1CN(CCNC(=O)c2ccc(F)c(NC(=O)c3cnc4cc(-c5cnn(C)c5)ccn34)c2)[C@H]1CC [Example 9.15, N-(5-((2-((2S,3R)-2,3-diethylazetidin-1-yl)ethyl)carbamoyl)-2-fluorophenyl)-7-(1-methyl-1H-pyrazol-4-yl)imidazo[1,2-a]pyridine-3-carboxamide]	2 nM
